Laboratory results taken from ChEMBL document CHEMBL5625267, “Glycosidase-activated H2S donorsto enhance chemotherapy efficacy” (Bioorg Med Chem Lett, 2024).
Calls of active or inactive are those of the source. The rule behind the calls is not given here.

What was measured:
HeLa [1] = assay: Antiproliferative activity against human HeLa cells assessed as cell viability at 50 uM incubated for 24 hrs by MTT assay relative to control; assay type: functional; settings: read-out: Activity
HepG2 [2] = assay: Antiproliferative activity against human HepG2 cells assessed as cell viability at 50 uM incubated for 24 hrs by MTT assay relative to control; assay type: functional; settings: read-out: Activity
[3] = Antiproliferative activity against mouse 3T3 cells assessed as cell viability at 50 uM incubated for 24 hrs by MTT assay relative to control; assay type: toxicity, cell-based; settings: NIH3T3 cells, read-out: Activity
HeLa [4] = assay: Antiproliferative activity against human HeLa cells assessed as cell viability at 80 uM incubated for 24 hrs by MTT assay relative to control; assay type: functional; settings: read-out: Activity
HepG2 [5] = assay: Antiproliferative activity against human HepG2 cells assessed as cell viability at 80 uM incubated for 24 hrs by MTT assay relative to control; assay type: functional; settings: read-out: Activity
[6] = Antiproliferative activity against mouse 3T3 cells assessed as cell viability at 80 uM incubated for 24 hrs by MTT assay relative to control; assay type: toxicity, cell-based; settings: NIH3T3 cells, read-out: Activity
HepG2 [7] = assay: Induction of apoptosis in human HepG2 cells at 80 uM incubated for 24 hrs by annexin V-FITC/propidium iodide staining based flow cytometry analysis relative to control; assay type: functional
HeLa [8] = assay: Induction of apoptosis in human HeLa cells at 80 uM incubated for 24 hrs by annexin V-FITC/propidium iodide staining based flow cytometry analysis relative to control; assay type: functional
[9] = Release of H2S in PBS at 50 uM at pH 7.4; assay type: physicochemical; settings: buffer, pH 7.4, 50 µM
HeLa [10] = assay: Induction of apoptosis in human HeLa cells assessed as viable cells at 80 uM incubated for 24 hrs by annexin V-FITC/propidium iodide staining based flow cytometry analysis (reference value: 91.7 %); assay type: functional; settings: read-out: Activity
HeLa [11] = assay: Induction of apoptosis in human HeLa cells assessed as early apoptotic cells at 80 uM incubated for 24 hrs by annexin V-FITC/propidium iodide staining based flow cytometry analysis (reference value: 3.59 %); assay type: functional
HeLa [12] = assay: Induction of apoptosis in human HeLa cells assessed as late apoptotic cells at 80 uM incubated for 24 hrs by annexin V-FITC/propidium iodide staining based flow cytometry analysis (reference value: 3.95 %); assay type: functional
HeLa [13] = assay: Induction of apoptosis in human HeLa cells assessed as necrotic cells at 80 uM incubated for 24 hrs by annexin V-FITC/propidium iodide staining based flow cytometry analysis (reference value: 0.71 %); assay type: functional
HepG2 [14] = assay: Induction of apoptosis in human HepG2 cells assessed as viable cells at 80 uM incubated for 24 hrs by annexin V-FITC/propidium iodide staining based flow cytometry analysis (reference value: 87.1 %); assay type: functional; settings: read-out: Activity
HepG2 [15] = assay: Induction of apoptosis in human HepG2 cells assessed as early apoptotic cells at 80 uM incubated for 24 hrs by annexin V-FITC/propidium iodide staining based flow cytometry analysis (reference value: 1.03 %); assay type: functional
HepG2 [16] = assay: Induction of apoptosis in human HepG2 cells assessed as late apoptotic cells at 80 uM incubated for 24 hrs by annexin V-FITC/propidium iodide staining based flow cytometry analysis (reference value: 10.1 %); assay type: functional
HepG2 [17] = assay: Induction of apoptosis in human HepG2 cells assessed as necrotic cells at 80 uM incubated for 24 hrs by annexin V-FITC/propidium iodide staining based flow cytometry analysis (reference value: 1.63 %); assay type: functional
HepG2 [18] = assay: Cytotoxicity against human HepG2 cells assessed as cell viability at 80 uM incubated for 24 hrs by MTT assay relative to control; assay type: functional; settings: read-out: Activity
HepG2 [19] = assay: Cytotoxicity against human HepG2 cells assessed as cell viability at 100 uM incubated for 24 hrs by MTT assay relative to control; assay type: functional; settings: read-out: Activity
HepG2 [20] = assay: Cytotoxicity against human HepG2 cells assessed as cell viability at 80 uM incubated for 24 hrs in presence of doxorubicin by MTT assay relative to control; assay type: functional; settings: read-out: Activity
HepG2 [21] = assay: Cytotoxicity against human HepG2 cells assessed as cell viability at 100 uM incubated for 24 hrs in presence of doxorubicin by MTT assay relative to control; assay type: functional; settings: read-out: Activity
HepG2 [22] = assay: Release of H2S in human HepG2 cells assessed as fold increase in fluorescence intensity at 50 uM incubated for 7 hrs in presence of fluorescent probe WPS-1 measured after 30 mins by confocal imaging analysis; assay type: ADME, cell-based; settings: hepg2, 7.5 h
HepG2 [23] = assay: Cytotoxicity against human HepG2 cells assessed as cell viability at 2 ug/ml incubated for 24 hrs by MTT assay relative to control; assay type: functional; settings: read-out: Activity

Compound	viability at 50 µM (HeLa [1]) [%]	viability at 50 µM (HepG2 [2]) [%]	viability at 24 h, 50 µM [3] [%]	viability at 80 µM (HeLa [4]) [%]	viability at 80 µM (HepG2 [5]) [%]	viability at 24 h, 80 µM [6] [%]	Activity (HepG2 [7])	Activity (HeLa [8])	Activity [9] [%]	also measured
OC[C@H]1O[C@@H](Oc2ccc(COC(=S)Nc3ccc(C(F)(F)F)cc3)cc2Br)[C@H](O)[C@@H](O)[C@@H]1O	95.3	87.3	93.5	92.1	61.8	92.7	inactive	inactive	36	–
OC[C@H]1O[C@@H](Oc2ccc(COC(=S)Nc3ccc(C(F)(F)F)cc3)cc2)[C@H](O)[C@@H](O)[C@H]1O	92	78.1	89.8	82.1	68.9	86.2	inactive	inactive	36	–
OC[C@H]1O[C@@H](Oc2ccc(COC(=S)Nc3ccc(C(F)(F)F)cc3)cc2F)[C@H](O)[C@@H](O)[C@H]1O	94.6	88.9	97.3	96	86	87.9	inactive	inactive	36	–
OC[C@H]1O[C@H](Oc2ccc(COC(=S)Nc3ccc(C(F)(F)F)cc3)cc2Br)[C@@H](O)[C@@H](O)[C@@H]1O	102	53.2	83.6	70.8	37.6	62.3	51.8%	45.2%	36	viability at 80 µM (HeLa [10]): 50.6%; Activity (HeLa [11]): 21.1%; Activity (HeLa [12]): 23.3%; Activity (HeLa [13]): 4.98%; viability at 80 µM (HepG2 [14]): 50.7%; Activity (HepG2 [15]): 10.8%; Activity (HepG2 [16]): 37.4%; Activity (HepG2 [17]): 1.13%; viability at 80 µM (HepG2 [18]): 73%; viability at 100 µM (HepG2 [19]): 67%; viability at 80 µM (HepG2 [20]): 64%; viability at 100 µM (HepG2 [21]): 46%; fold change (FC) (HepG2 [22]): 7
OC[C@H]1O[C@H](Oc2ccc(COC(=S)Nc3ccc(C(F)(F)F)cc3)cc2F)[C@@H](O)[C@@H](O)[C@@H]1O	78.7	45.7	86.3	72.6	49	83.9	24.4%	40.6%	36	viability at 80 µM (HeLa [10]): 56.8%; Activity (HeLa [11]): 8.14%; Activity (HeLa [12]): 23.9%; Activity (HeLa [13]): 8.15%; viability at 80 µM (HepG2 [14]): 76.3%; Activity (HepG2 [15]): 1.03%; Activity (HepG2 [16]): 18.3%; Activity (HepG2 [17]): 3.44%
Cc1ccc(NC(=S)OCc2ccc(O[C@@H]3O[C@H](CO)[C@@H](O)[C@H](O)[C@H]3O)cc2)cc1	86.9	91	102	90.8	85.3	95	inactive	inactive	36	–
O=C(Nc1ccc(C(F)(F)F)cc1)OCc1ccc(O[C@H]2O[C@H](CO)[C@@H](O)[C@H](O)[C@@H]2O)c(Br)c1	–	–	–	–	51.6	–	–	–	–	–
OC[C@H]1O[C@H](Oc2ccc(COC(=S)Nc3ccc(C(F)(F)F)cc3)cc2)[C@@H](O)[C@@H](O)[C@@H]1O	97.4	81.7	94.5	95	90.2	95.3	inactive	inactive	36	–
OC[C@H]1O[C@@H](Oc2ccc(COC(=S)Nc3ccc(C(F)(F)F)cc3)cc2Br)[C@H](O)[C@@H](O)[C@H]1O	97.5	82.2	86.8	88.2	86.8	89.2	20.9%	–	36	–
OC[C@H]1O[C@@H](Oc2ccc(COC(=S)Nc3ccc(C(F)(F)F)cc3)cc2)[C@H](O)[C@@H](O)[C@@H]1O	86.9	87.9	88.1	92	91.2	91.7	inactive	inactive	36	–
OC[C@H]1O[C@@H](Oc2ccc(COC(=S)Nc3ccc(C(F)(F)F)cc3)cc2F)[C@H](O)[C@@H](O)[C@@H]1O	96	88.6	88.9	100	86	90.8	inactive	inactive	36	–
COc1cccc2c1C(=O)c1c(O)c3c(c(O)c1C2=O)C[C@@](O)(C(=O)CO)C[C@@H]3O[C@H]1C[C@H](N)[C@H](O)[C@H](C)O1 [DOXORUBICIN]	–	–	–	–	–	–	–	–	–	viability at 2 µg/mL (HepG2 [23]): 100%
Cc1ccc(NC(=S)OCc2ccc(O[C@@H]3O[C@H](CO)[C@H](O)[C@H](O)[C@H]3O)cc2)cc1	97.1	95.8	110	96.3	96.9	103	inactive	inactive	36	–
